The compounds below were run against T1, recombinant Arabidopsis ACS5 (Arabidopsis thaliana, UniProt Q37001) (assay: In vitro ACS activity assay). Conditions: purified recombinant ACS5, 30 min at 25° C.; read-out: estimated half maximal inhibitory concentration (IC50), ACS5 enzyme activity.
T1 construct: The full-length cDNA of Arabidopsis ACS5 (At5g65800) was cloned to pETDuet (Novagen); 6His (N); made in house; host or cells: E. coli BL21-CodonPlus (Stratagene)
T1 sequence (Q37001 1-470): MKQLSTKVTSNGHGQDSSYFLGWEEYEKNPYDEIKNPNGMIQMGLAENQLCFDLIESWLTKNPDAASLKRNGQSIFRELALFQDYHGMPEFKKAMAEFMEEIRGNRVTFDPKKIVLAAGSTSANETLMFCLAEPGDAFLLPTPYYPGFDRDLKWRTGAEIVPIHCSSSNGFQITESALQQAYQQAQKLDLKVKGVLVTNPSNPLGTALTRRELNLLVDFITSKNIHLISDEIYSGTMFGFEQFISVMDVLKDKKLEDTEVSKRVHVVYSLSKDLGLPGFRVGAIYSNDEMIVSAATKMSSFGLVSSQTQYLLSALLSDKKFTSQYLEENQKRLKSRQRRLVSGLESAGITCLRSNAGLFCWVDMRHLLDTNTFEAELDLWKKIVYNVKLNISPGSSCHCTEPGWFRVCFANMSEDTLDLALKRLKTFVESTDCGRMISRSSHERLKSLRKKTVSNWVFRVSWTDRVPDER
Assay type: biochemical
Method: The full-length cDNA of Arabidopsis ACS5 (At5g65800) was cloned to pETDuet (Novagen) to generate pETDuet-6His-ACS5 for expression in E. coli (BL21-CodonPlus, Stratagene) and subsequent purification of the recombinant ACS5 protein. Protein expression was induced at OD600 0.6 by adding 0.4 mM IPTG, and cells were incubated at 16° C. for 18 h. Cells were harvested by centrifugation at 6000×g for 10 min at 4° C. The cell pellet was washed and suspended in 50 mL phosphate buffer (300 mM NaCl, 20 mM phosphate buffer, pH 7.4) containing 20 mM imidazole. Cell lysis was achieved by a continuous high-pressure cell disrupter (TS 2.2 KW, Constant System) with 30 KPsi at 4° C. After washing the cell disrupter twice with 50 ml phosphate buffer containing 20 mM imidazole, the final 150 ml suspension was centrifuged at 10000×g for 30 min at 4° C. The supernatant was applied to a 5-mL HisTrap FF column in an AKTAprime system (GE Healthcare) and was subsequently washed stepwise with 100 mL buffer A (1 mM EDTA, 5 mM DTT, 250 mM HEPES buffer, pH 8.0) containing 20 mM imidazole, then 100 mL buffer A containing 100 mM imidazole. The bound protein was eluted by a 0.1-1.0 M gradient of imidazole in 25 mL buffer A and stored at −80° C. until further analysis.
ACS activity assay was performed as described (Lizada, et al. (1979) Anal Biochem 100, 140-145; Yamagami, et al. (2003) J Biol Chem 278, 49102-49112), with minor modifications. […] Ethylene level was measured by use of a gas chromatograph (HP 6890, Hewlett-Packard) equipped with a capillary column (19095P-U04, Agilent Technologies) and an autosampler (HP 7694, Agilent Technologies). […]
To further test this possibility, recombinant Arabidopsis ACS5 protein from bacterial cells was purified for an in vitro enzyme activity assay. […] The quantity of ACC converted to ethylene by recombinant ACS5 is the readout of ACS activity. […]

First: Cc1ccc(C2CC(=O)c3cnc(NC4CCCC4)nc3C2)cc1 (stereo not drawn) [Compound 9370]
Second: CC1(C)CC(=O)c2cnc(NC3CCCC3)nc2C1 [Compound 9393]
The IC50 of the first is 2.3-fold lower: 1.4 µM for the first, 3.2 µM for the second.

Work on `COc1ccc(C2CC(=O)c3cnc(Nc4ccccc4)nc3C2)cc1` (stereo not drawn) [Compound 7303] yielded an IC50 of 0.5 µM.
